# Test results from US5837479A, “Screening assays for inhibitors of mammalian prostaglandin H synthase-2” (priority 1995, dated 1998).
# Like-named read-outs stand apart in the source and are kept apart here.
# Key:
# [1] = test system: familial polyposis (colon polyps); conditions: patients with familial polyposis; cited from earlier work
# [2] = test system: colorectal carcinoma; conditions: several clinical trials; cited from earlier work
# [3] = test system: human PGHS-2 (versus human PGHS-1); experiment: NSAID inhibition of human PGHS-2 activity in stably transformed COS cells (4B4), compared with human PGHS-1 cells (H17A5); format: cell-based; conditions: 30 min preincubation, 15 min arachidonic acid; FIGS. 8A-8D and 9A-9D
# Experimental: PGHS-1 and PGHS-2 cell lines (including 4B4 and H17A5) were exposed to various concentrations of NSAID for 30 min in serum-free DMEM. […] Controls consisted of no drug treatment and cells treated with the maximal concentrations of drug vehicles (1% methanol or ethanol). […] Cyclooxygenase activity was determined as described herein above.
# [4] = test system: 72-74 kDa protein doublet, BALB/c 3T3 fibroblasts; conditions: cited from earlier work
# [5] = test system: 4-kb mRNA (PGHS-2); experiment: level of 4-kb PGHS-2 mRNA in C127 mouse fibroblasts; format: cell-based; conditions: C127 cells
# From the text: Three of four potential N-glycosylation sites are conserved between the two molecules and there is particularly high similarity in the regions surrounding a putative axial heme-binding domain (amino acids 273-342) and the region around the presumed aspirin modified-serine^516 (amino acids 504-550). By far the largest difference in the two cDNAs is the presence of a 2.1 kb 3' untranslated region in the 4.1 kb cDNA. This region is rich in 5'-AUUUA-3' motifs that are associated with the decreased stability of many cytokine and protooncogene mRNAs. The presence of these motifs is consistent with the profound superinducibility of the 4.1 kb mRNA by cycloheximide, which is not observed for the 2.8 kb mRNA.
# [6] = test system: 2.8-kb PGHS mRNA (PGHS-1), human monocytes; format: cell-based
# Experimental: (§1) FIGS. 3A-3B are a photographic depiction of autoradiographies obtained by Northern blotting monitoring the expression of the genes encoding griPGHS and the constitutive PGHS-1, as expressed in human monocytes, in response to interleukin-1 treatment, a known mediator of inflammation. Adherent human monocytes isolated from healthy donors were suspended in medium without serum at 1×10^6 cells/ml. One ml aliquots in 5 ml polypropylene tubes were incubated with loosened caps in 5% CO2 at 37° C. with occasional shaking. FIGS. 3A-3B are more fully described as follows:
# (§2) Five μg was subjected to Northern blot analysis with the indicated probes.
# (§3) Cycloheximide (25 μM) was added to one set of incubations 15 min prior to he addition of cytokine or hormone.
# (§4) Poly-A enriched RNAs (2.5 μg) from C127 cells were fractionated by formaldehyde-agarose gel electrophoresis and transferred to a membrane (Duralon, Stratagene). Hybridization was carried out as previously described by O'Banion et al., 1991, J. Virol., 65:3481-3488, using the 5' 1.2 kb EcoR1 fragment of the 4.1 kb cDNA labeled with ^32 P by random priming as disclosed by Feinberg et al., 1983, Anal. Biochem., 132:6-13. The membrane was later rehybridized with a similarly labeled portion (1.6 kb 5' end) of the 2.8 kb ovine PGHS cDNA (Oxford Biomedical Research, Inc.), and an end-labeled 40-mer complimentary to β-tubulin (Oncor). RNA molecular weight markers (Life Technologies) were visualized by ethidium bromide staining. A similar analysis was performed on total RNA (5 µg/lane) isolated from human monocytes by the guanidinium-acid-phenolextraction method of Chomczynski et al., 1987, Anal. Biochem., 162:156-159.
# (§5) Adherent human monocytes isolated from healthy donors as described by Roberts et al., 1978, J. Immunol, 121:1052-1058, were suspended in M199 medium without serum at 1×10^6 cells/ml. One ml aliquots in 5 ml polypropylene tubes were incubated with loosened caps in 5% CO2 at 37° C. with occasional shaking. […] Five μg RNA was subjected to Northern blot analysis as described by O'Banion et al., 1991, J. Biol. Chem., 34:23261-23267 with the indicated probes labeled by random priming (kit from Boehringer-Mannheim) to a specific activity >1×10^9 cpm/μg. […] Cycloheximide (25 μM; Sigma) was added to one set of incubations 15 min prior to the addition of cytokine or hormone.
# [7] = test system: griPGHS mRNA (4.8-kb mRNA), human monocytes; format: cell-based; conditions: for griPGHS mRNA increase relative to control: IL-1β 10 half-maximal units
# Experimental: as §1, §2, §3, §4, §5
# [8] = test system: 2.8-kb mRNA encoding PGHS-1; experiment: level of 2.8-kb PGHS-1 mRNA in C127 mouse fibroblasts; format: cell-based; conditions: C127 cells
# [9] = test system: C127 mouse fibroblasts (protein synthesis); experiment: inhibition of protein synthesis in C127 mouse fibroblasts; format: cell-based; conditions: C127, 0.25 h, within 15 min
# From the text: C127 mouse fibroblasts were obtained from Peter Howley (NIH) and propagated in high glucose Dulbecco's modified Eagle's medium supplemented with 10% fetal bovine serum (HyClone Laboratories) without antibiotics. See, Lowy et al., 1978, J. Virol., 26:291-298. Cultures were monitored for mycoplasma contamination by Hoechst 33258 staining in accord with the procedure of Chen, 1977, Exp. Cell Res., 104:255-262.
# Exponentially growing, subconfluent (60-80%) cell monolayers (35-mm plates) were labeled in Dulbecco's modified Eagle's medium without methionine (Life Technologies) plus 200 μCi/ml Tran^35 S-label (>1,000 Ci/mmol; ICN) for 15 or 30 min. In some cases, fresh fetal calf serum (10%) was present during the labeling period. Monolayers were rinsed twice with ice-cold Dulbecco's modified Eagle's medium (DMEM) with methionine prior to lysis in 200 μl of A8 buffer (9.5M urea, 2% (w/v) Nonidet P-40, 2% (w/v) ampholines (LKB, 1.6% pH range 5-8, 04. % pH range 3.5-10), 5% (w/v) 2-mercaptoethanol). Incorporation of label into proteins was determined by trichloroacetic acid precipitation. […] The calcium ionophore A23187 (Calbiochem) was used at a concentration of 5 μM from a 2.5 mM stock in ethanol. Cycloheximide (Sigma) was used at a concentration of 25 μM from a 100 X stock in water. This level inhibited protein synthesis by >97% within 15 min. […]
# [10] = test system: PGHS-2 expression, astrocytes; conditions: cultured murine and rat astrocytes; cited from earlier work
# [11] = test system: COS cells; experiment: toxicity to COS cells; format: cell-based, monkey; conditions: 800 μg/ml Geneticin (active component 657 μg/ml)
# Experimental: Sixty-mm plates of 50% confluent COS-A2 (monkey-kidney) cells, which contain little or no cyclooxygenase activity were transfected with 1-2.5 μg of purified pRC/CMV;hPGHS-2 plasmid, pRC/CMV;hPGHS-1 plasmid or the PRC/CMV vector alone by a calcium phosphate precipitation method (Chen et al., 1987, Mol. Cell. Biol., 7:2745-2752. Plates were incubated at 35° C., 3% CO2 for 24 hr in normal media (Dulbecco's modified Eagle Media (DMEM)+10% fetal bovine serum). After two rinses with warm DMEM, plates were transferred to 37° C., 5% CO2 for an additional 24 hr. Selection was then started with normal media containing 800 μg/ml of Geneticin (active component G418, 657 μg/ml, Life Technologies), a concentration which is toxic for COS cells. […] Twelve to twenty-four colonies from each transfection were isolated using cloning cylinders. The majority of these survived continued G418 selection during clonal cell-line expansion.
# [12] = test system: cystic fibrosis lung disease; conditions: high-dose, cystic fibrosis patients; cited from earlier work
# [13] = test system: preterm labor; conditions: in vivo; cited from earlier work
compound,measurement,setting,value
CC1=C(CC(=O)O)c2cc(F)ccc2/C1=C\c1ccc([S+](C)[O-])cc1 (stereo not shown) [Sulindac],colon polyp regression,[1],colon polyp regression
CC(=O)Oc1ccccc1C(=O)O [aspirin],colon tumor growth and death,[2],decreased colon tumor growth and death
same,"levels of drug required for inhibition, PGHS-1 versus PGHS-2 cells",[3],different for the cells expressing PGHS-1 versus those expressing PGHS-2
platelet-derived growth factor,synthesis of 72-74 kDa protein doublet,[4],transiently increased
C[C@@H]1C[C@@H]([C@H](O)CC2CC(=O)NC(=O)C2)C(=O)[C@@H](C)C1 [cycloheximide],accumulation of 4-kb mRNA,[5],accumulates to significant levels
same,levels of 2.8-kb mRNA relative to β-tubulin,"[6]; IL-1β, dexamethasone or cycloheximide treatment",not significantly altered
same,superinduction of 4.8-kb mRNA,"[7]; cycloheximide 25 μM, added 15 min before cytokine or hormone",superinduction of the 4.8-kb mRNA was clearly evident
same,change in 2.8-kb PGHS-1 mRNA level,[8],no change
same,inhibition at 25 µM,[9],> 97%
TNFα,regulation of PGHS-2 expression in astrocytes,[10],strongly up-regulated
same,time of peak PGHS-2 mRNA level,[10],2 h
C[C@@H]1C[C@H]2[C@@H]3CCC4=CC(=O)C=C[C@]4(C)[C@@]3(F)[C@@H](O)C[C@]2(C)[C@@]1(O)C(=O)CO [dexamethasone],level of 2.8-kb PGHS mRNA,"[6]; 4 hr, normalized to β-tubulin",not affected
same,change in 2.8-kb PGHS-1 mRNA level,[8],no change
"IL-1β: IL-1β (10 half-maximal units, Collaborative Research), a known mediator of inflammation",levels of 2.8-kb mRNA relative to β-tubulin,[6],not significantly altered
same,griPGHS mRNA increase relative to control,[7]; 4 hr,2.5 fold
same,griPGHS mRNA increase relative to control,[7]; 12 hr,14 fold
same,regulation of PGHS-2 expression in astrocytes,[10],strongly up-regulated
same,time of peak PGHS-2 mRNA level,[10],2 h
CN[C@@H]1[C@@H](O)[C@@H](O[C@@H]2[C@@H](O)[C@H](O[C@H]3O[C@H]([C@@H](C)O)[C@@H](O)[C@H](O)[C@H]3N)[C@@H](N)C[C@H]2N)OC[C@]1(C)O [G418],toxicity for COS cells,[11],toxic
CC(C)Cc1ccc(C(C)C(=O)O)cc1 (stereo not shown) [ibuprofen],progression of lung disease,[12],slows the progression of lung disease
COc1ccc2c(c1)c(CC(=O)O)c(C)n2C(=O)c1ccc(Cl)cc1 [indomethacin],premature closure of the ductus arteriosus of the fetus,[13],raises concern with premature closure of the ductus arteriosus
same,"levels of drug required for inhibition, PGHS-1 versus PGHS-2 cells",[3],different for the cells expressing PGHS-1 versus those expressing PGHS-2
